# Assay results taken from publication PMC4581293, “Structure-Based Optimization of Inhibitors of the Aspartic Protease Endothiapepsin” (International Journal of Molecular Sciences, 2015).
# Target: T1, endothiapepsin (Cryphonectria parasitica, UniProt P11838)
# T1 construct: Endothiapepsin was purified from Suparen; purchased DSM Food Specialties, Heerlen, The Netherlands (kindly provided) Suparen
# T1 sequence (P11838 90-419): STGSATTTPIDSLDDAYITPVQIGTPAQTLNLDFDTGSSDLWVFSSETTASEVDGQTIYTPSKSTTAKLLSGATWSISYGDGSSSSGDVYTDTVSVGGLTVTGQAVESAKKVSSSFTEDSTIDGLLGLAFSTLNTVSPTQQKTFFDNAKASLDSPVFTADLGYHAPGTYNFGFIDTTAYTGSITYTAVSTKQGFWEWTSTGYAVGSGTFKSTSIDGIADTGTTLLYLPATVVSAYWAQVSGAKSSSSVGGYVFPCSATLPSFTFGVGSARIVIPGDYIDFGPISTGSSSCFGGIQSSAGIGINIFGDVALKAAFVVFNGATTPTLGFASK
# Assay: Fluorescence-based enzymatic inhibition assay (adapted from the HIV protease assay)
# Type: biochemical
# Settings: for IC50: 0.4 nM endothiapepsin, 1.8 μM substrate, pH 4.6, 2.1% DMSO, E/Z mixture, duplicate, ± SD; for ΔGexpt, experimental Gibbs free energy of binding: derived from the experimentally determined IC50 values using the Cheng–Prusoff equation; for LE (ligand efficiency): obtained from the IC50 values using the Cheng–Prusoff equation
# Text: To determine their inhibitory potency against endothiapepsin, we subjected these acylhydrazone derivatives to a fluorescence-based enzymatic inhibition assay, adapted from the HIV protease assay.
# Endothiapepsin was purified from Suparen® (kindly provided by DSM Food Specialties, Heerlen, The Netherlands) by exchanging the buffer to sodium acetate buffer (0.1 M, pH 4.6) using a Vivaspin 500 (Sartorius, Rotterdam, The Netherlands) with a molecular weight cutoff at 10,000 Da.
# Stock solutions (100 mM in DMSO) were prepared for acylhydrazones 2–9 (mixture of E/Z isomers). The final reaction volume was 200 μL containing 0.4 nM endothiapepsin, 1.8 μM substrate and 2.1% DMSO. The final concentration of inhibitors was 1000 μM in the first well and subsequent half dilution in next 10 wells. In the same way, blanks were prepared using DMSO instead of the inhibitor stock solutions. As substrate, Abz–Thr–Ile–Nle-p-nitro-Phe–Gln–Arg–NH2 (purchased from Bachem, Bubendorf, Switzerland) was used for the fluorescence screening assay. The assay was performed with flat bottom 96-well microplates (purchased from Greiner Bio-One, Alphen aan den Rijn, The Netherlands) using a Synergy Mx microplate reader at an excitation wavelength of 337 nm and an emission wavelength of 414 nm. […] The assay buffer (0.1 M sodium acetate buffer, pH 4.6, containing 0.001% Tween 20) was premixed with the substrate and inhibitor; endothiapepsin was added directly before the measurement. As the substrate is a fluorogenic substrate, during measurement the fluorescence increased because of substrate hydrolysis by endothiapepsin. The initial slopes of the fluorescence in the acylhydrazone-containing wells were compared to the initial slope of the blanks for data analysis.
SMILES,IC50 [µM],"ΔGexpt, experimental Gibbs free energy of binding [kcal/mol]",LE (ligand efficiency)
N[C@@H](Cc1c[nH]c2ccccc12)C(=O)N/N=C/c1ccc(C(F)(F)F)cc1 [compound 2],7 ± 0.5,-7.48,0.28
Cc1ccccc1/C=N/NC(=O)[C@@H](N)Cc1c[nH]c2ccccc12 [compound 7],59 ± 4,-6.21,0.26
Cc1cccc(/C=N\NC(=O)[C@@H](N)Cc2c[nH]c3ccccc23)c1O [compound 5],36 ± 11,-6.5,0.26
N[C@@H](Cc1c[nH]c2ccccc12)C(=O)N/N=C/c1ccccc1Br [compound 6],54.5 ± 0.5,-6.26,0.26
N[C@@H](Cc1c[nH]c2ccccc12)C(=O)N/N=C/c1ccccc1 [compound 9],,-6.31,0.27
N[C@@H](Cc1c[nH]c2ccccc12)C(=O)N/N=C/c1cccc(C(F)(F)F)c1 [compound 3],244 ± 32,-5.38,0.20
N[C@@H](Cc1c[nH]c2ccccc12)C(=O)N/N=C/c1ccccc1F [compound 4],38 ± 7,-6.48,0.27
Cc1cccc(C)c1/C=N/NC(=O)[C@@H](N)Cc1c[nH]c2ccccc12 [compound 8],30 ± 5,-6.62,0.26
